Measured values: patent US20140377403A1, “METHOD FOR EVALUATING FLAVOR-IMPROVING AGENT” (T. HASEGAWA CO., LTD., priority 2011, published 2014)

Columns and labels:
subjects = test: Sensory evaluation of strength of taste of sample solutions by subjects; format: in vivo, human; details: for strength of sensory sweetness: subjects who showed a change in salivary gland response in Example 2
From the text: Each subject is held in a resting state, keeps water in the mouth such that the water spreads throughout the mouth for 30 seconds, then swallows the water, and then is held in a resting state for 60 seconds. Subsequently, the subject keeps a sample in the mouth to carefully taste the sample in the mouth for 30 seconds, then swallows the sample, and then is held in a resting state for 60 seconds again. Subsequently, the subject keeps water in the mouth again such that the water spreads throughout the mouth for 30 seconds, then swallows the water, and then is held in a resting state for 60 seconds. Subsequently, the subject keeps another sample in the mouth to carefully taste the sample in the mouth for 30 seconds, then swallows the sample, and then is held in a resting state for 60 seconds again. Thus, drinking of water and drinking of a sample are alternately repeated (FIG. 2). A sample can be evaluated at about four or five different concentrations in each experiment. […] Samples at previously selected four or five different concentrations are sequentially evaluated by the above-described procedure. During the evaluation of the sample, including the times of drinking and resting, the blood flow is measured, and the change therein is recorded. In addition, sensory evaluation is performed during the tasting of the sample in the mouth for 30 seconds. After completion of the evaluation at a series of four or five concentrations, the strength of flavor of the sample is concluded lastly to fill the sensory evaluation sheet (FIG. 3).
The sensory evaluation was performed in accordance with the evaluation questionnaire shown in FIG. 3 for the strength of taste as 0: tasteless, 3: weak, 6: moderate, 9: strong, and 12: very strong.
The samples of four different concentrations were subjected to sensory evaluation from a lower concentration of ethylmaltol to a higher concentration sequentially in accordance with the time schedule shown in FIG. 2 as in Example 1.

salivary gland = test: Salivary gland response: change in blood flow (signal strength) at a periphery of the temple of the forehead, measured with an optical topography system; format: in vivo, human
From the text: Each subject is held in a resting state, keeps water in the mouth such that the water spreads throughout the mouth for 30 seconds, then swallows the water, and then is held in a resting state for 60 seconds. Subsequently, the subject keeps a sample in the mouth to carefully taste the sample in the mouth for 30 seconds, then swallows the sample, and then is held in a resting state for 60 seconds again. Subsequently, the subject keeps water in the mouth again such that the water spreads throughout the mouth for 30 seconds, then swallows the water, and then is held in a resting state for 60 seconds. Subsequently, the subject keeps another sample in the mouth to carefully taste the sample in the mouth for 30 seconds, then swallows the sample, and then is held in a resting state for 60 seconds again. Thus, drinking of water and drinking of a sample are alternately repeated (FIG. 2). A sample can be evaluated at about four or five different concentrations in each experiment. […] Samples at previously selected four or five different concentrations are sequentially evaluated by the above-described procedure. During the evaluation of the sample, including the times of drinking and resting, the blood flow is measured, and the change therein is recorded. In addition, sensory evaluation is performed during the tasting of the sample in the mouth for 30 seconds. After completion of the evaluation at a series of four or five concentrations, the strength of flavor of the sample is concluded lastly to fill the sensory evaluation sheet (FIG. 3). When a sample is drunk in accordance with the above-described procedure, the blood flow at a periphery of the temple of the forehead gradually increases after putting the sample into the mouth, and the signal strength reaches the maximum within about 5 to 30 seconds. Subsequently, the signal strength gradually decreases and reaches the original level within about 60 seconds after putting the sample into the mouth. Accordingly, a value obtained by subtracting the “minimum” blood flow within about 15 seconds after the moment of putting a sample into the mouth from the “maximum” blood flow during from about 5 to 30 seconds after putting the sample into the mouth at a specific site, i.e., the response strength of a change in blood flow, is defined as a change in signal strength at the periphery of the temple of the forehead. […] A probe (FIG. 1) having a large number of sensors connected to an optical topography system body was set to the head of each subject, and then each sample was given to the subjects sequentially, followed by measurement. In accordance with the time schedule shown in FIG. 2, after resting, water was first given, and then a sample was given to aggressively evaluate the flavor. The order of drinking aqueous solutions of one kind of a taste substance given to the subjects was from a lower concentration to a higher concentration sequentially. (1) FIG. 4 is a graph illustrating the amount of typical change in oxygenated hemoglobin with time when water was put in the mouth and drunk and then a sample was put in the mouth and drunk, measured with an optical topography system at a periphery of the temple of the forehead (channel 52). […] The response strength was determined by that “when the time at which a sample was drunk is defined as a time of 0 second, (the maximum blood flow within 5 to 30 seconds)−(the minimum blood flow within 0 to 15 seconds)”.

[1] = 0, 1, 5, 10 ppm added to 4% aqueous sugar solution

## OCCc1ccccc1 [2-phenylethyl alcohol]
subjects; [1]
  strength of sensory sweetness: No increase

## CC(C)=CCCC(C)=CC=O [citral]
Salivary gland; 0, 1, 5, 10 ppm added to 0.1% aqueous citric acid solution, subjects showing a change in salivary gland response to a known flavor-improving agent, FIG. 10
  response measured at the periphery of the temple of the forehead compared with 0.1% aqueous citric acid solution alone: enhanced
subjects; 0, 1, 5, 10 ppm added to 0.1% aqueous citric acid solution, subjects showing a change in salivary gland response to a known flavor-improving agent
  strength of sensory acidity: increased with the concentration
subjects; [1]
  strength of sensory sweetness: No increase

## CCc1occc(=O)c1O [ethylmaltol, reference compound]
Salivary gland; 0, 1, 5, 10 ppm added to 4% aqueous sugar solution, eight arbitrarily selected subjects, FIGS. 6 and 7
  signal strength compared with 4% aqueous sugar solution alone: An enhancement in signal strength by addition of ethylmaltol was confirmed in six subjects
subjects; 0, 1, 5, 10 ppm added to 4% aqueous sugar solution, eight arbitrarily selected subjects
  strength of sensual sweetness: increased with the amount of ethylmaltol

## COc1ccc(C=CC=O)cc1 [p-methoxycinnamaldehyde]
Salivary gland; 0, 1, 5, 10 ppm added to 4% aqueous sugar solution, subjects who showed a change in salivary gland response in Example 2, FIGS. 8 and 9
  response measured at the periphery of the temple of the forehead compared with 4% aqueous sugar solution alone: enhanced
subjects; [1]
  strength of sensory sweetness: increased with the concentration

## OC[C@H]1O[C@@](CO)(O[C@H]2O[C@H](CO)[C@@H](O)[C@H](O)[C@H]2O)[C@@H](O)[C@@H]1O [sugar]
Salivary gland; aqueous sugar solution 0 to 8%, eight arbitrarily selected subjects
  response strength measured at a periphery of the temple of the forehead, compared with water: larger than that to water in all subjects
Salivary gland; sugar concentration range 0 to 8%, eight subjects
  dependence of response strength on sample concentration and sweetness strength: an enhancement of the response strength depending on the sample concentration and the sweetness strength was observed
